Experimental data taken from ChEMBL document CHEMBL5143589, “Drugging the Next Undruggable KRAS Allele-Gly12Asp” (J Med Chem, 2022).

How the values were obtained:
[1] = Inhibition of KRAS […] mutant (unknown origin) by HTRF assay; set-up: species or system Homo sapiens
[2] = Binding affinity to KRAS […] mutant (unknown origin) assessed as dissociation constant; set-up: species or system Homo sapiens
GTPase KRas [3] = molecular target: T1, GTPase KRas (Homo sapiens, UniProt P01116); test: Binding affinity to KRAS (unknown origin) assessed as inhibition constant
Target sequence in this assay (P01116 whole entry): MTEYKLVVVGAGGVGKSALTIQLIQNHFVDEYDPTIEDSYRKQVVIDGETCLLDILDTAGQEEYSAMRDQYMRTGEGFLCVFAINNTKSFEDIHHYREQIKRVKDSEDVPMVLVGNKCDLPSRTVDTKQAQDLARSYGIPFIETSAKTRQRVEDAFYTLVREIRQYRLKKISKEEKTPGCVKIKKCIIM

GTPase KRas [4] = molecular target: T1, GTPase KRas
Target sequence in this assay (P01116 whole entry, looked up): as the sequence (P01116 whole entry) above
Description: Binding affinity to KRAS (unknown origin) assessed as inactivation constant

[5] = Inhibition of ERK phosphorylation in human AGS cells; assay type: cell-based
AGS = test: Antiproliferative activity against human AGS cells assessed as reduction of cell viability; assay type: functional, cell-based
MKN-1 = test: Antiproliferative activity against human MKN-1 cells assessed as reduction of cell viability; assay type: functional, cell-based

| Kd [2] | Compound | IC50 [1] | other results |
| --- | --- | --- | --- |
|  | Oc1cc(-c2ncc3c(N4CC5CCC(C4)N5)nc(OC[C@@]45CCCN4C[C@H](F)C5)nc3c2F)c2ccccc2c1 | ≤ 2 nM |  |
|  | C#Cc1c(F)ccc2cccc(-c3ncc4c(N5CC6CCC(C5)N6)nc(OCC56CCCN5CCC6)nc4c3F)c12 | ≤ 2 nM |  |
|  | C=CC(=O)N1CCN(c2ncnc3c(F)c(-c4c(O)cccc4F)c(Cl)cc23)CC1 |  | Ki (GTPase KRas [3]): 31000 nM; Kinact (GTPase KRas [4]): 0.03 s⁻¹ |
| 3500 nM | CN1CCC[C@H]1COc1nc(N2CCNCC2)c2cnc(-c3cccc4cccc(Cl)c34)c(F)c2n1 |  |  |
| 0.0002 nM | C#Cc1c(F)ccc2cc(O)cc(-c3ncc4c(N5CC6CCC(C5)N6)nc(OC[C@@]56CCCN5C[C@H](F)C6)nc4c3F)c12 [MRTX-1133] |  | IC50 [5]: 2 nM; IC50 (AGS): 6 nM; IC50 (MKN-1): > 3000 nM |

| Compound | Kd [2] | IC50 [1] | other results |
| --- | --- | --- | --- |
| CN1CCC[C@H]1COc1nc(N2CC3CCC(C2)N3)c2cnc(-c3cc(O)cc4ccccc34)c(F)c2n1 | 0.8 nM | 5 nM |  |
